# From ChEMBL document CHEMBL1201862, “PubChem BioAssay data set” (2004)
#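 Values below derive from 48-hour exposures of cells grown in 96-well plates, with endpoints linearly interpolated between the two concentrations bracketing the appropriate inhibition level. The concentration for 50% growth inhibition is given as GI50.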 Active and inactive are the calls of the source. Rule as the data show it: active = GI50 up to about 1.1 µM and inactive = higher.
# Assays:
# Test in all cases: DTP human tumour cell line panel, 48 h
# NCI-H226 = system: NCI-H226
# OVCAR-3 = system: OVCAR-3
# NCI-H23 = system: NCI-H23
# HCC 2998 = system: HCC 2998
# HOP-92 = system: HOP-92
# NCI/ADR-RES = system: NCI/ADR-RES
# 786-0 = system: 786-0
# K562 = system: K562
# A549 = system: A549
# CAKI-1 = system: CAKI-1
# SK-MEL-2 = system: SK-MEL-2
# KM12 = system: KM12
# TK-10 = system: TK-10
# CCRF-CEM = system: CCRF-CEM
# IGROV-1 = system: IGROV-1
# SR = system: SR
# SF-295 = system: SF-295
# MOLT-4 = system: MOLT-4
# SF-268 = system: SF-268
# SK-MEL-28 = system: SK-MEL-28
# COLO 205 = system: COLO 205
# PC-3 = system: PC-3
# BT-549 = system: BT-549
# HCT-15 = system: HCT-15
# HCT-116 = system: HCT-116
# NCI-H460 = system: NCI-H460
# SK-OV-3 = system: SK-OV-3
# UO-31 = system: UO-31
# U-251 = system: U-251
# OVCAR-4 = system: OVCAR-4
# M14 = system: M14
# MDA-N = system: MDA-N
# LOX IMVI = system: LOX IMVI
# OVCAR-8 = system: OVCAR-8
# EKVX = system: EKVX
# T47D = system: T47D
# UACC-62 = system: UACC-62
# SNB-75 = system: SNB-75
# MCF7 = system: MCF7
# SN12C = system: SN12C
# SF-539 = system: SF-539
# SNB-19 = system: SNB-19
# MDA-MB-435 = system: MDA-MB-435
# Malme-3M = system: Malme-3M
# ACHN = system: ACHN
# A498 = system: A498
# RPMI-8226 = system: RPMI-8226
# NCI-H522 = system: NCI-H522
# MDA-MB-231 = system: MDA-MB-231
# UACC-257 = system: UACC-257
# SK-MEL-5 = system: SK-MEL-5
# Hs-578T = system: Hs-578T
# OVCAR-5 = system: OVCAR-5
# SW-620 = system: SW-620
# DU-145 = system: DU-145
# HT-29 = system: HT-29
# HL-60 = system: HL-60
# HOP-62 = system: HOP-62
structure (smiles),measurement,setting,value
OC(c1ccc2c(c1)OCO2)c1ccc2c(c1)OCO2,GI50,NCI-H226,> 100 µM (inactive)
same,GI50,OVCAR-3,> 100 µM (inactive)
same,GI50,NCI-H23,> 100 µM (inactive)
same,GI50,HCC 2998,> 100 µM (inactive)
same,GI50,HOP-92,> 100 µM (inactive)
same,GI50,NCI/ADR-RES,> 100 µM (inactive)
same,GI50,786-0,> 100 µM (inactive)
same,GI50,K562,> 100 µM (inactive)
same,GI50,A549,> 100 µM (inactive)
same,GI50,CAKI-1,> 100 µM (inactive)
same,GI50,SK-MEL-2,> 100 µM (inactive)
same,GI50,KM12,> 100 µM (inactive)
same,GI50,TK-10,> 100 µM (inactive)
same,GI50,CCRF-CEM,> 100 µM (inactive)
same,GI50,IGROV-1,> 100 µM (inactive)
same,GI50,SR,> 100 µM (inactive)
same,GI50,SF-295,> 100 µM (inactive)
same,GI50,MOLT-4,> 100 µM (inactive)
same,GI50,SF-268,53.6 µM (inactive)
same,GI50,SK-MEL-28,> 100 µM (inactive)
same,GI50,COLO 205,> 100 µM (inactive)
same,GI50,PC-3,> 100 µM (inactive)
same,GI50,BT-549,> 100 µM (inactive)
same,GI50,HCT-15,> 100 µM
same,GI50,HCT-116,> 100 µM (inactive)
same,GI50,NCI-H460,> 100 µM (inactive)
same,GI50,SK-OV-3,> 100 µM (inactive)
same,GI50,UO-31,75 µM (inactive)
same,GI50,U-251,> 100 µM (inactive)
same,GI50,OVCAR-4,> 100 µM (inactive)
same,GI50,M14,> 100 µM (inactive)
same,GI50,MDA-N,> 100 µM (inactive)
same,GI50,LOX IMVI,> 100 µM (inactive)
same,GI50,OVCAR-8,> 100 µM (inactive)
same,GI50,EKVX,> 100 µM (inactive)
same,GI50,T47D,> 100 µM (inactive)
same,GI50,UACC-62,> 100 µM (inactive)
same,GI50,SNB-75,80.4 µM (inactive)
same,GI50,MCF7,> 100 µM (inactive)
same,GI50,SN12C,> 100 µM (inactive)
same,GI50,SF-539,> 100 µM (inactive)
same,GI50,SNB-19,> 100 µM (inactive)
same,GI50,MDA-MB-435,> 100 µM (inactive)
same,GI50,Malme-3M,> 100 µM (inactive)
same,GI50,ACHN,> 100 µM (inactive)
same,GI50,A498,54 µM (inactive)
same,GI50,RPMI-8226,> 100 µM (inactive)
same,GI50,NCI-H522,> 100 µM (inactive)
same,GI50,MDA-MB-231,> 100 µM (inactive)
same,GI50,UACC-257,> 100 µM (inactive)
same,GI50,SK-MEL-5,> 100 µM (inactive)
same,GI50,Hs-578T,> 100 µM (inactive)
same,GI50,OVCAR-5,> 100 µM (inactive)
same,GI50,SW-620,> 100 µM (inactive)
same,GI50,DU-145,> 100 µM (inactive)
same,GI50,HT-29,> 100 µM (inactive)
same,GI50,HL-60,> 100 µM (inactive)
same,GI50,HOP-62,> 100 µM (inactive)
O=[N+]([O-])c1ccc(C2=NOC(c3ccccc3F)N2C23CC4CC(CC(C4)C2)C3)cc1 (configuration not stated),GI50,NCI-H226,> 100 µM (inactive)
same,GI50,OVCAR-3,> 100 µM (inactive)
same,GI50,NCI-H23,> 100 µM (inactive)
same,GI50,HCC 2998,> 100 µM (inactive)
same,GI50,HOP-92,7.43 µM (inactive)
same,GI50,NCI/ADR-RES,> 100 µM (inactive)
same,GI50,786-0,> 100 µM (inactive)
same,GI50,K562,> 100 µM (inactive)
same,GI50,A549,> 100 µM (inactive)
same,GI50,CAKI-1,> 100 µM (inactive)
same,GI50,SK-MEL-2,> 100 µM (inactive)
same,GI50,KM12,> 100 µM (inactive)
same,GI50,TK-10,> 100 µM (inactive)
same,GI50,CCRF-CEM,> 100 µM (inactive)
same,GI50,IGROV-1,> 100 µM (inactive)
same,GI50,SR,> 100 µM (inactive)
same,GI50,SF-295,> 100 µM (inactive)
same,GI50,MOLT-4,> 100 µM (inactive)
same,GI50,SF-268,> 100 µM (inactive)
same,GI50,SK-MEL-28,> 100 µM (inactive)
same,GI50,COLO 205,> 100 µM (inactive)
same,GI50,PC-3,> 100 µM (inactive)
same,GI50,BT-549,> 100 µM (inactive)
same,GI50,HCT-15,> 100 µM
same,GI50,HCT-116,> 100 µM (inactive)
same,GI50,NCI-H460,> 100 µM (inactive)
same,GI50,SK-OV-3,> 100 µM (inactive)
same,GI50,UO-31,> 100 µM (inactive)
same,GI50,U-251,> 100 µM (inactive)
same,GI50,OVCAR-4,> 100 µM (inactive)
same,GI50,M14,> 100 µM (inactive)
same,GI50,MDA-N,> 100 µM (inactive)
same,GI50,LOX IMVI,> 100 µM (inactive)
same,GI50,OVCAR-8,> 100 µM (inactive)
same,GI50,EKVX,> 100 µM (inactive)
same,GI50,T47D,> 100 µM (inactive)
same,GI50,UACC-62,> 100 µM (inactive)
same,GI50,SNB-75,> 100 µM (inactive)
same,GI50,MCF7,> 100 µM (inactive)
same,GI50,SN12C,> 100 µM (inactive)
same,GI50,SF-539,> 100 µM (inactive)
same,GI50,MDA-MB-435,> 100 µM (inactive)
same,GI50,Malme-3M,> 100 µM (inactive)
same,GI50,ACHN,> 100 µM (inactive)
same,GI50,A498,> 100 µM (inactive)
same,GI50,RPMI-8226,98.9 µM (inactive)
same,GI50,NCI-H522,> 100 µM (inactive)
same,GI50,MDA-MB-231,> 100 µM (inactive)
same,GI50,UACC-257,> 100 µM (inactive)
same,GI50,SK-MEL-5,> 100 µM (inactive)
same,GI50,Hs-578T,> 100 µM (inactive)
same,GI50,OVCAR-5,> 100 µM (inactive)
same,GI50,SW-620,> 100 µM (inactive)
same,GI50,DU-145,> 100 µM (inactive)
same,GI50,HT-29,> 100 µM (inactive)
same,GI50,HL-60,25.9 µM (inactive)
same,GI50,HOP-62,> 100 µM (inactive)
Cc1oc2c(Cl)cc(O)c(Cl)c2c2cccc1-2,GI50,NCI-H226,14.2 µM (inactive)
same,GI50,OVCAR-3,18.1 µM (inactive)
same,GI50,NCI-H23,19.5 µM (inactive)
same,GI50,HCC 2998,> 100 µM (inactive)
same,GI50,HOP-92,14.9 µM (inactive)
same,GI50,NCI/ADR-RES,28.8 µM (inactive)
same,GI50,786-0,21.9 µM (inactive)
same,GI50,K562,12.6 µM (inactive)
same,GI50,A549,28.2 µM (inactive)
same,GI50,CAKI-1,30.1 µM (inactive)
same,GI50,SK-MEL-2,33.3 µM (inactive)
same,GI50,KM12,17.7 µM (inactive)
same,GI50,TK-10,> 100 µM (inactive)
same,GI50,CCRF-CEM,14.1 µM (inactive)
same,GI50,IGROV-1,23.1 µM (inactive)
same,GI50,SR,12.5 µM (inactive)
same,GI50,SF-295,31.6 µM (inactive)
same,GI50,SF-268,34.9 µM (inactive)
same,GI50,SK-MEL-28,14.8 µM (inactive)
same,GI50,COLO 205,30.4 µM (inactive)
same,GI50,PC-3,31.3 µM (inactive)
same,GI50,BT-549,23.6 µM (inactive)
same,GI50,HCT-15,21.5 µM
same,GI50,HCT-116,16.6 µM (inactive)
same,GI50,NCI-H460,> 100 µM (inactive)
same,GI50,SK-OV-3,> 100 µM (inactive)
same,GI50,UO-31,36.4 µM (inactive)
same,GI50,U-251,18.9 µM (inactive)
same,GI50,OVCAR-4,12 µM (inactive)
same,GI50,M14,28.6 µM (inactive)
same,GI50,MDA-N,18.5 µM (inactive)
same,GI50,LOX IMVI,16.9 µM (inactive)
same,GI50,OVCAR-8,23.6 µM (inactive)
same,GI50,EKVX,18.7 µM (inactive)
same,GI50,T47D,1.96 µM (inactive)
same,GI50,UACC-62,28.6 µM (inactive)
same,GI50,SNB-75,2.83 µM (inactive)
same,GI50,MCF7,9.73 µM (inactive)
same,GI50,SN12C,25.9 µM (inactive)
same,GI50,SF-539,20.1 µM (inactive)
same,GI50,SNB-19,42.8 µM (inactive)
same,GI50,MDA-MB-435,20.1 µM (inactive)
same,GI50,Malme-3M,25.7 µM (inactive)
same,GI50,ACHN,40.6 µM (inactive)
same,GI50,A498,42 µM (inactive)
same,GI50,RPMI-8226,10.4 µM (inactive)
same,GI50,NCI-H522,26.4 µM (inactive)
same,GI50,MDA-MB-231,33.6 µM (inactive)
same,GI50,UACC-257,> 100 µM (inactive)
same,GI50,SK-MEL-5,19.4 µM (inactive)
same,GI50,Hs-578T,34.8 µM (inactive)
same,GI50,OVCAR-5,45.5 µM (inactive)
same,GI50,SW-620,32.5 µM (inactive)
same,GI50,DU-145,8.85 µM (inactive)
same,GI50,HT-29,35.2 µM (inactive)
same,GI50,HL-60,25.8 µM (inactive)
same,GI50,HOP-62,24.2 µM (inactive)
